Where “and” joins values, the source holds several entries; their conditions need not be identical. Equal entries are not always repeated. Entries after “also recorded” stand apart in the source; their conditions may differ. Where two headings read alike, the source gives them in different places. One block for each compound: values may come before it.
Legend:
NMDA receptor = conditions: C. Carter et al, 1988; cited from earlier work
sigma receptor = target: T1, sigma receptor (Rattus norvegicus, UniProt Q9R0C9); experiment: Radioreceptor assay in rat brain homogenate, displacement of [3H]-(+)-3-PPP; type: binding; conditions: for Ki: rat brain membranes, 2 nM [3H]-(+)-3-PPP, 1 hr, room temperature, units ± SEM, read-out: Ki apparent
T1 construct: Brains from male Sprague-Dawley rats were homogenized; from tissue; host or cells: rat brain crude membranes (male Sprague-Dawley)
Description: Acad. Sci., 83, 8784-8788, 1986] to determine the relative potency of the compounds interacting with the sigma receptor. To determine the effects of the compounds in a sigma receptor assay, crude membrane preparations were prepared as follows. Brains from male Sprague-Dawley rats were homogenized in 10 volumes (wt/vol) of 0.32M sucrose, using a Polytron grinder. The homogenate was centrifuged at 900×G for 10 minutes at 4° C. The supernatant was collected and centrifuged at 22,000×g for 20 minutes at 4° C. The pellet was resuspended in 10 volumes of 50 mM Tris/HCl buffer (pH 7.4) and centrifuged at 22,000×g for 20 minutes at 4° C. The pellet was resuspended in 5 mM Tris/HCl buffer (pH 7.4) to give a final concentration of 250 mg/ml of the crude material. Incubation tubes were prepared in triplicate and contained 0.1 ml of tissue suspension, 2 nM of [^3 H]-(+)-1-propyl-3-(3-hydroxyphenyl)piperidine {[^3 H]-3-(+)-PPP}, and varying concentrations of the displacing ligand (0.1-1000 nM) in a final volume of 0.5 ml. After a 1 hr incubation at room temperature, the contents of the test tubes were filtered through GS filter paper which had been presoaked for at least 2 hours in 0.05% polyethyleneamine. The test tubes were rinsed three times with Tris/HCl buffer. Radioactivity on the filters was determined and […] were calculated from inhibition curves using the method of Cheng and Prusoff [Biochem. Pharmacol., 22, 3099-3108, 1973].

sigma receptors = target: T2, sigma receptors (Cavia porcellus, UniProt Q60492); experiment: Radioreceptor assay in guinea pig brain homogenate (P2 membranes), [3H]-(+)-3-PPP; type: binding
T2 construct: crude synaptosomal (P2) membrane fraction of guinea pig brain for sigma receptors; tissue Pel-Freeze, Rogers, Ak; host or cells: guinea pig brain minus cerebellum, crude synaptosomal (P2) membranes

substantia nigra = experiment: Circling behavior assay, intranigral microinjection; type: in vivo, rat; conditions: for Net Turns (individual rat): individual subjects
Description: In order to assess the utility of compounds of the invention in treatment of Parkinsonism, the ability of the compound to stimulate movement following microinjections in the substantia nigra was assessed. Parkinson's disease results from the degeneration of dopamine-secreting neurons in the substantia nigra resulting in a reduced ability to generate movement. […] Such a stimulatory action would predict increased ability to generate voluntary movement in Parkinson's patients showing decreased functionality of this brain area. Current treatments of Parkinson's disease also stimulate this brain area, but show significant side effects that may not be present in compounds of the invention. […] It is expected, therefore, that compounds of the invention would have clinical utility in the treatment of Parkinson's disease and other disorders in which there is a paucity of movement.
Three to seven days before behavioral testing, each animal (245-350 g, N=57) was anesthetized with 50 mg/kg sodium pentobarbital and mounted in a Narishige stereotaxic apparatus. A guide cannula, constructed from 24 gauge thinwall stainless steel tubing, was implanted with its tip 4.0 mm above the left substantia nigra pars reticulata (coordinates: 3.2 mm anterior; 2.2 mm lateral; 4.7 mm ventral), from lambda and the skull surface. Cannulae were secured with stainless steel screws and dental acrylic. Stainless steel stylers kept the cannulae sealed except during drug infusion. All drugs were prepared on the day of testing. Animals were gently restrained and the drugs were administered in a volume of 0.5 ul over 72 seconds through a 31 gauge microneedle that was constructed to extend 4.0 mm beyond the tips of the guide cannulae. […] Animals received a single injection of saline (n=6), 1.5 nmol (n=5), 3.7 nmol (n=6), 9.3 nmol (n=7 or 14.9 nmol (n=5) in 0.5 ul 0.9% NaCl. Following injection, each animal was fitted with a harness which was connected to an optical position transducer interfaced to a compouter that derived the number and direction of half turns for 30 min. Each rat received a single injection of the test drug to minimize tissue damage. Rats were sacrificed by an overdose of sodium pentobarbital and perfused intracardially with 10% formalin. Brains were fixed in a 30% sucrose-formalin solution and coronal sections (40 um) were taken throughout the extent of the injection site. The sections were stained with cresyl violet and examined under a microscope to localize injection sites. Only subjects with histologically confirmed injection sites were used in the data analyses. For the studies of circling behavior, the number of net (contalateral-isolateral) rotations were computed for each rat and subjected to analysis of variance. […] Results showing contralateral circling behavior produced by intranigral microinjections of various doses of Compound #1 are reported in Table IV and illustrated in FIG. 1.
Individual subjects are shown along with the average and standard deviation of the effect.

T2 sequence (Q60492 whole entry): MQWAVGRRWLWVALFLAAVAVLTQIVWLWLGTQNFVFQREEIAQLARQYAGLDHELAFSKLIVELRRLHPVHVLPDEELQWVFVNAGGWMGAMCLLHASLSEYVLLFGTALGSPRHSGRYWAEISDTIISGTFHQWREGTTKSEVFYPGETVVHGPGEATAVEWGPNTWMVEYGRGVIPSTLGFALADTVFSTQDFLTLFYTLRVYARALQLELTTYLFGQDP
T1 sequence (Q9R0C9 whole entry): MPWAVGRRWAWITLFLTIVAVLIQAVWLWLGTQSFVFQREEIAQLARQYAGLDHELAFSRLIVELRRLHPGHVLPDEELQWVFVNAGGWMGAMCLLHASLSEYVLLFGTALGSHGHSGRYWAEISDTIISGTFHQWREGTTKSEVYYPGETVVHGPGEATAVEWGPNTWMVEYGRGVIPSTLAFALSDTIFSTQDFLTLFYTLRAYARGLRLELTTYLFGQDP

Compound: 1-(4-chlorophenyl)-2-[1-(4-fluorophenyl)piperidinyl]ethanol
NMDA receptor antagonism (in words) (NMDA receptor): non-competitive NMDA receptor antagonists

Compound: CN(CCc1ccc(Cl)c(Cl)c1)[C@@H]1CCCC[C@@H]1N1CCCC1 (racemic) [Compound No. 1, (±)-cis-N-[2-(3,4-dichlorophenyl)ethyl]-N-methyl-2-(1-pyrrolidinyl)cyclohexylamine]
Binding to sigma receptors (in words) (sigma receptor): binds to sigma receptors
Ki (sigma receptor): 230 ± 70 nM
Ki (sigma receptors): 1.8 ± 0.4 nM
Net Turns, Average (substantia nigra; dose 1.49 nmol, Stan Dev 18.94): 11.00 1/2 contralateral rotations ne
Net Turns (individual rat) (substantia nigra; dose 1.49 nmol): 25.00 1/2 contralateral rotations ne and 17.00 1/2 contralateral rotations ne and 5.00 1/2 contralateral rotations ne and 4.00 1/2 contralateral rotations ne and 38.00 1/2 contralateral rotations ne
Net Turns, Average (substantia nigra; dose 3.72 nmol, Stan Dev = 7.87): 18.33 1/2 contralateral rotations ne
Net Turns (individual rat) (substantia nigra; dose 3.72 nmol): 13.00 1/2 contralateral rotations ne and 23.00 1/2 contralateral rotations ne and 5.00 1/2 contralateral rotations ne and 28.00 1/2 contralateral rotations ne and 25.00 1/2 contralateral rotations ne and 16.00 1/2 contralateral rotations ne
Net Turns, Average (substantia nigra; dose 9.3 nmol, Stan Dev 21.46): 38.14 1/2 contralateral rotations ne
Net Turns (individual rat) (substantia nigra; dose 9.3 nmol): 28.00 1/2 contralateral rotations ne and 20.00 1/2 contralateral rotations ne and 46.00 1/2 contralateral rotations ne and 87.00 1/2 contralateral rotations ne and 30.00 1/2 contralateral rotations ne and 22.00 1/2 contralateral rotations ne and 34.00 1/2 contralateral rotations ne
Net Turns, Average (substantia nigra; dose 14.9 nmol, Stan Dev = 27.08): 31.00 1/2 contralateral rotations ne
Net Turns (individual rat) (substantia nigra; dose 14.9 nmol): 6.00 1/2 contralateral rotations ne and 58.00 1/2 contralateral rotations ne and 13.00 1/2 contralateral rotations ne and 61.00 1/2 contralateral rotations ne and 7.00 1/2 contralateral rotations ne and 75.00 1/2 contralateral rotations ne and 24.00 1/2 contralateral rotations ne and 4.00 1/2 contralateral rotations ne
Circling behavior compared to saline control (substantia nigra; intranigral microinjection 1.5-14.9 nmol, F4,27=3.09, p=0.032): significant dose-related increases in circling behavior; also recorded: increasing doses of Compound #1 produce marked effects, which are statistically significant
Doses producing circling compared with (+)-pentazocine (substantia nigra; intranigral, (+)-pentazocine data published previously): doses lower than those necessary to produce the effect with (+)-pentazocine

Compound: CN(CCc1ccccc1)[C@@H]1CCCC[C@@H]1N1CCCC1 (racemic) [compound 9, (±)-cis-N-methyl-N-(2-phenylethyl)-2-(1-pyrrolidinyl)cyclohexylamine]
Ki (sigma receptors): 113 ± 8 nM

Ki (sigma receptors; guinea pig brain P2 membranes, 3 nM [3H]-3-PPP, pH 8.0, 120 min, 25° C., units ± SEM, read-out: Ki): 33 ± 5 nM
Compound: CN(CCc1ccc2ccccc2c1)[C@@H]1CCCC[C@@H]1N1CCCC1 (racemic) [compound 10, (±)-cis-N-methyl-N-[2-(β-naphthyl)ethyl]-2-(1-pyrrolidinyl)cyclohexylamine]

Compound: CN(Cc1ccc(Cl)c(Cl)c1)[C@@H]1CCCC[C@@H]1N1CCCC1 (relative stereo) [compound 17, (±)-cis-N-[2-(3,4-dichlorophenyl)methyl]-N-methyl-2-(1-pyrrolidinyl)cyclohexylamine]
Ki (sigma receptors): 1.2 ± 0.03 nM

Compound: CN(CCc1ccc(Cl)c(Cl)c1)[C@H]1CCCC[C@H]1N1CCCC1 [Compound No. 7, 1S,2R-(-)-cis-N-[2-(3,4-dichlorophenyl)ethyl]-N-methyl-2-(1-pyrrolidinyl)cyclohexylamine]
Ki (sigma receptor): 30 ± 10 nM
Ki (sigma receptors): 1.3 ± 0.3 nM

Compound: CCCN(CCc1ccc(Cl)c(Cl)c1)[C@@H]1CCCC[C@@H]1N1CCCC1 [compound 4, (1R,2S)-(-)-cis-N-[2-(3,4-dichlorophenyl)-ethyl]-N-(n-propyl)-2-(1-pyrrolidinyl)cyclohexylamine]
Ki (sigma receptors): 56 ± 9.9 nM

Compound: CCN(CCc1ccc(Cl)c(Cl)c1)[C@@H]1CCCC[C@@H]1N1CCCC1 [compound 5, (1R,2S)-(-)-cis-N-ethyl-N-[2-(3,4-dichlorophenyl)ethyl]-2-(1-pyrrolidinyl)cyclohexylamine]
Ki (sigma receptors): 3.5 ± 1 nM

Compound: CN(CCc1ccc2c(c1)OCO2)[C@H]1CCCC[C@H]1N1CCCC1 [compound 11, 1S,2R-(-)-cis-N-methyl-N-[2-(3,4-methylenedioxyphenyl)ethyl]-2-(1-pyrrolidinyl)cyclohexylamine]
Ki (sigma receptors): 90 ± 20 nM

Compound: CN(CCc1ccc2c(c1)OCO2)[C@@H]1CCCC[C@@H]1N1CCCC1 [compound 12, 1R,2S-(+)-cis-N-methyl-N-[2-(3,4-methylenedioxyphenyl)ethyl]-2-(1-pyrrolidinyl)cyclohexylamine]
Ki (sigma receptors): 31 ± 0.05 nM

Compound: CCN(CCc1ccc(Cl)c(Cl)c1)[C@H]1CCCC[C@H]1N1CCCC1 [compound 14, 1S,2R-(-)-cis-N-[2-(3,4-dichlorophenyl)ethyl]-N-ethyl-2-(1-pyrrolidinyl)cyclohexylamine]
Ki (sigma receptors): 3.1 ± 0.55 nM

Compound: CCCN(CCc1ccc(Cl)c(Cl)c1)[C@H]1CCCC[C@H]1N1CCCC1 [compound 16, 1S,2R-(-)-cis-N-[2-(3,4-dichlorophenyl)ethyl]-N-(1-propyl)-2-(1-pyrrolidinyl)cyclohexylamine]
Ki (sigma receptors): 140 ± 17 nM

Compound: CC(C(O)c1ccc(O)cc1)N1CCC(Cc2ccccc2)CC1 (centres unmarked) [ifenprodil]
NMDA receptor antagonism (in words) (NMDA receptor): non-competitive NMDA receptor antagonists
